Consider 8 compounds from PubChem BioAssay (NCI).

Molecules are shown by their SMILES.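 Step 1: Grow cells in 96-well plates. Step 2: Expose to compound for 48 hours at 5 concentrations. Step 3: Interpolate endpoints linearly; if unreached, use highest concentration. The concentration for full growth arrest is given as TGI.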

What all share (assay): NCI anticancer screen, dose series, 48 h
The test system of assay [1] is PC-3 prostate.
The subject of assay [2] is K-562 leukemia.
For assay [3], the system named is MOLT-4 leukemia.
Assay [4] relates to HT29 colon.
Assay [5] has as its system OVCAR-3 ovarian.
The test system of assay [6] is SK-MEL-28 melanoma.
For assay [7], the system named is NCI-H522 lung.
Assay [8] concerns SK-OV-3 ovarian.
Assay [9] concerns T-47D breast.
For assay [10], the system named is A498 renal.
For assay [11], the system named is HL-60(TB) leukemia.
Assay [12] relates to SR leukemia.
In assay [13] the test system is SNB-19 CNS.
Assay [14] relates to DU-145 prostate.
Assay [15] concerns UACC-257 melanoma.
The subject of assay [16] is NCI/ADR-RES ovarian.
In assay [17] the test system is CCRF-CEM leukemia.
Assay [18] relates to SW-620 colon.
The test system of assay [19] is OVCAR-4 ovarian.

For the compound `CO[C@]12S[C@@H]3CCCC[C@@]31C(C)(C)C(=O)N2c1ccccc1`, the TGI in assay [1] is 96.7 µM; in assay [2] it was above 100 µM; in assay [3], 78.2 µM; in assay [4] it was above 100 µM; in assay [5] it was 38.5 µM; in assay [6], above 100 µM. Moreover, the TGI is above 100 µM in assay [7]; 76.8 µM in [8]; above 100 µM in assay [9]; above 100 µM in assay [10]; 42.5 µM in assay [11]; above 100 µM in assay [12]. For the same compound, the TGI in assay [13] was above 100 µM; in assay [14], above 100 µM; in assay [15] it was above 100 µM; in assay [16] it was 78.8 µM; in assay [17], above 100 µM; in assay [18], above 100 µM.

With `CCOC(=O)C1C(c2ccc(OC)cc2)c2c([nH][nH]c2=O)CC1(C)O` (stereo unspecified), the TGI in [1], in [3], in assay [4], in assay [5], in [6] and in assay [7] was above 100 µM in each case. Also, the TGI in assay [9], in assay [10], in [11], in assay [12], in assay [13] and in assay [14] was above 100 µM in each case. In addition, the TGI in assay [15], in [16], in assay [17], in [19] and in [18] was above 100 µM in each case.

Turning to `CCOC(=O)OC1C(Br)C2CCC1(C)C2(C)C` (stereo unspecified), the TGI in assay [1] was found to be 23.6 µM; in [2], 20.1 µM; in assay [3], 16.6 µM; in [4], 18.6 µM; in assay [5], 28.8 µM; in assay [6], 29.3 µM. The TGI in [7] was determined as 30.2 µM; in [8], 29.5 µM; in assay [9], 30.3 µM; in [11] it was 20.1 µM; in assay [12], 5.83 µM; in assay [13], 28.3 µM. Moreover, the TGI in assay [14] turned out to be 33 µM; in assay [15] it was 29.5 µM; in assay [16], 32.7 µM; in assay [17] it was 17.3 µM; in assay [19], 25.1 µM; in assay [18], 30.8 µM.

On to `Cc1cc(S(=O)(=O)Nc2nnc3ccccn23)c(S)cc1Cl`, for which the TGI in [1], in assay [2], in assay [3], in assay [4], in [5] and in assay [6] was above 100 µM each time. For the same compound, the TGI in [7], in assay [9], in assay [10], in assay [11], in assay [12] and in [13] was above 100 µM each time. The TGI in [14], in [15], in [16], in [19] and in assay [18] was above 100 µM throughout.

On to `C=CCN1C[C@H](C)N([C@H](c2ccc(C(=O)N(CC)CC)cc2)c2cccc(OC)c2)C[C@H]1C`, for which the TGI in assay [1] was above 100 µM; in [3] it was 99.5 µM; in [4], above 100 µM; in [5], 50.5 µM; in assay [6], above 100 µM; in assay [7], above 100 µM. Moreover, the TGI in [8] is above 100 µM; in [9], 65.5 µM; in assay [10], above 100 µM; in assay [11] it was 64.9 µM; in assay [12], above 100 µM; in assay [13], above 100 µM. Besides, the TGI was above 100 µM in assay [14]; 52.3 µM in assay [15]; above 100 µM in assay [16]; above 100 µM in [19]; above 100 µM in assay [18].

As to `CCC1(CC)N=C(C(F)(F)F)c2cc(C(=O)C(F)(F)F)c3ccccc3c2N1`, the TGI in assay [1] was above 100 µM; in [2], above 100 µM; in assay [4] it was 81.4 µM; in assay [5], 8.58 µM; in assay [6], 52.2 µM; in [7] it was 11.1 µM. The TGI was 49.7 µM in assay [8]; 15.2 µM in [9]; 35.3 µM in assay [10]; 8.25 µM in assay [11]; 9.36 µM in assay [12]; above 100 µM in [13]. In addition, the TGI was 21.5 µM in [14]; 33.9 µM in assay [15]; 42.1 µM in [16]; 31.1 µM in assay [17]; above 100 µM in assay [19]; above 100 µM in assay [18].

As to `CCC/C(Cl)=N/OC(NC(=O)OCC)(C(F)(F)F)C(F)(F)F`, the TGI in assay [1] is above 100 µM; in assay [2], 62.6 µM; in assay [3], 71.4 µM; in assay [4], 47.2 µM; in [5], 29.6 µM; in assay [6] it was 59.2 µM. Moreover, the TGI in [7] was above 100 µM; in [9], 66.9 µM; in assay [10], above 100 µM; in assay [11] it was 48.2 µM; in [12] it was 57.6 µM; in [13], above 100 µM. In addition, the TGI in assay [14] is above 100 µM; in assay [15], 37.7 µM; in assay [16], above 100 µM; in assay [17] it was 87.9 µM; in assay [19], 31.7 µM; in [18], 37.5 µM.

In the case of `CCNC1=C(NC(=O)c2ccccc2)C(=O)c2ccccc2C1=O`, the TGI in assay [1] was 78.9 µM; in assay [2], above 100 µM; in assay [3], above 100 µM; in [4] it was 82.5 µM; in assay [5], 85.3 µM; in [6] it was above 100 µM. Besides, the TGI in assay [7] was 79.2 µM; in [8], above 100 µM; in assay [9], above 100 µM; in assay [11], above 100 µM; in assay [12], above 100 µM; in assay [13], above 100 µM. In addition, the TGI in [14] was above 100 µM; in assay [15] it was 64.5 µM; in assay [16], 39.7 µM; in assay [17], above 100 µM; in assay [19], above 100 µM; in [18], above 100 µM.
